Measurements: PMC4207771, “Identification and Characterization of Novel Renal Sensory Receptors” (PLoS ONE, 2014)
Entries after “also recorded” stand apart in the source; their conditions may differ.

test system: not given; assay: not given; set-up: method as in PMID 20304335, PMID 15230715; conditions: patients treated with valproate as an antiepileptic drug; cited from earlier work

Molecule | renal adverse effect in patients
CCCC(CCC)C(=O)O [valproate, reference compound] | develop Fanconi syndrome

test system: Olfr545; assay: dual-luciferase (cAMP/CREB reporter) ligand screen, Olfr545 in HEK293T cells; type: cell-based, mouse; set-up: key to Olfr545 response in dual-luciferase assay: ‘+’ or ‘–‘ in each column indicates if the olfactory receptor responded or had no effect to that specific chemical; -: ‘+’ or ‘–‘ in each column indicates if the olfactory receptor responded or had no effect to that specific chemical; conditions: chemicals tested individually, screened at 500uM (* also at 100uM)

Molecule | Olfr545 response in dual-luciferase assay
CCCCC=O [n-valeraldehyde] | -
CCCCC(=O)O [valerate] | -
CCCC(CCC)C(=O)O [valproate, reference compound] | -
CCCCCCCC(=O)O [octanoic acid] | -
CCCCCCCCCCCC(=O)O [dodecanoic acid] | -
CCCCC(CC)C(=O)O (centres unmarked) [2-ethylhexanoate] | -
C=CCSCC=C [allyl sulfide] | -
CC(=O)c1c(C)c([N+](=O)[O-])c(C(C)(C)C)c([N+](=O)[O-])c1C [musk ketone] | -
CCCCCCCCC(=O)O [nonanoic acid] | -
O=C1CC2CC[C@H]1C2 [norcamphor] | -
CCCCCOC(C)=O [amyl acetate] | -
CC(C)CCO [3-methyl-1-butanol] | -
CCCCCCCCO [1-octanol] | -
CCCCCC(C)=O [2-heptanone] | -
Myrtenal | -
CCCC(=O)C(C)=O [2,3-hexadione] | -

test system: Olfr99; assay: dual-luciferase (cAMP/CREB reporter) ligand screen, Olfr99 in HEK293T cells; type: cell-based, mouse; set-up: key: ‘+’ or ‘–‘ in each column indicates if the olfactory receptor responded or had no effect to that specific chemical; -: ‘+’ or ‘–‘ in each column indicates if the olfactory receptor responded or had no effect to that specific chemical; conditions: chemicals tested individually, screened at 500uM (* also at 100uM)

Molecule | Olfr99 response in dual-luciferase assay
CCCCC=O [n-valeraldehyde] | -
CCCCC(=O)O [valerate] | -
CCCC(CCC)C(=O)O [valproate, reference compound] | -
CCCCCCCC(=O)O [octanoic acid] | -
CCCCCCCCCCCC(=O)O [dodecanoic acid] | -
CCCCC(CC)C(=O)O (centres unmarked) [2-ethylhexanoate] | -
C=CCSCC=C [allyl sulfide] | -
CC(=O)c1c(C)c([N+](=O)[O-])c(C(C)(C)C)c([N+](=O)[O-])c1C [musk ketone] | -
CCCCCCCCC(=O)O [nonanoic acid] | -
O=C1CC2CC[C@H]1C2 [norcamphor] | -
CCCCCOC(C)=O [amyl acetate] | -
CC(C)CCO [3-methyl-1-butanol] | -
CCCCCCCCO [1-octanol] | -
CCCCCC(C)=O [2-heptanone] | -
Myrtenal | -
CCCC(=O)C(C)=O [2,3-hexadione] | -

target: T1, Olfr691 (Mus musculus, UniProt Q8VGW5); assay: dual-luciferase (cAMP/CREB reporter) ligand screen, Olfr691 in HEK293T cells; type: cell-based; conditions: not given
T1 construct: Lucy (N); expressed in transfected cells; host or cells: HEK293T, co-transfected with RTP1S
T1 sequence (Q8VGW5 1-322): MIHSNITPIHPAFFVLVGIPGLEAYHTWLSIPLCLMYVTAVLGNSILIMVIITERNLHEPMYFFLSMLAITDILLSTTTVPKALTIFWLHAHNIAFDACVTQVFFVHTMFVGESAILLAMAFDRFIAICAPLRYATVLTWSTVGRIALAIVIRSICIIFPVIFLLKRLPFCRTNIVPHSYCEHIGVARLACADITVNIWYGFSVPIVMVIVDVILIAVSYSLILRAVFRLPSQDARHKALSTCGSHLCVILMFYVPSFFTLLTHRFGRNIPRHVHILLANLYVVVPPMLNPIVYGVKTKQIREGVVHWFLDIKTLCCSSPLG

Molecule | Olfr691 response (in words)
CCCCCCCC(=O)O [octanoic acid] | responds

same assay, conditions: HEK-293T, 4 h; 0.5 mM ligand; normalized to the response of Olfr691 to the strongest ligand, 4-pentenoate

Molecule | Relative response (% of 4-pentenoate response) at 500 µM
CCCCC(=O)O [valerate] | 98 ± 5.7%
CCCC(CCC)C(=O)O [valproate, reference compound] | 98 ± 5%
CCCCCCCC(=O)O [octanoic acid] | 20 ± 0.9%
CCCCC(CC)C(=O)O (centres unmarked) [2-ethylhexanoate] | 76 ± 3.6%

same assay, conditions: Olfr691 co-expressed with RTP1S in HEK293T cells; 10 µM to 7.5 mM

Molecule | EC50
CCCCC(=O)O [valerate] | 852 µM
CCCC(CCC)C(=O)O [valproate, reference compound] | 478 µM

same assay, conditions: chemicals tested individually, screened at 500uM (* also at 100uM)

Molecule | Olfr691 response in dual-luciferase assay
CCCCC=O [n-valeraldehyde] | -
CCCCC(=O)O [valerate] | +
CCCC(CCC)C(=O)O [valproate, reference compound] | +
CCCCCCCC(=O)O [octanoic acid] | +
CCCCCCCCCCCC(=O)O [dodecanoic acid] | -
CCCCC(CC)C(=O)O (centres unmarked) [2-ethylhexanoate] | +
C=CCSCC=C [allyl sulfide] | -
CC(=O)c1c(C)c([N+](=O)[O-])c(C(C)(C)C)c([N+](=O)[O-])c1C [musk ketone] | -
CCCCCCCCC(=O)O [nonanoic acid] | -
O=C1CC2CC[C@H]1C2 [norcamphor] | -
CCCCCOC(C)=O [amyl acetate] | -
CC(C)CCO [3-methyl-1-butanol] | -
CCCCCCCCO [1-octanol] | -
CCCCCC(C)=O [2-heptanone] | -
Myrtenal | -
CCCC(=O)C(C)=O [2,3-hexadione] | -

same assay, conditions: luciferase assay, co-expressed with RTP1S

Molecule | Olfr691 response (in words)
CCCCC(=O)O [valerate] | dose dependent manner; also recorded: able to confirm
CCCC(CCC)C(=O)O [valproate, reference compound] | highest affinity

same assay, conditions: luciferase assay, co-expressed with RTP1S; listed as pentanal

Molecule | Olfr691 response (in words)
CCCCC=O [n-valeraldehyde] | did not induce a response

test system: Olfr693; assay: dual-luciferase (cAMP/CREB reporter) ligand screen, Olfr693 in HEK293T cells; type: cell-based, mouse; set-up: key: ‘+’ or ‘–‘ in each column indicates if the olfactory receptor responded or had no effect to that specific chemical; -: ‘+’ or ‘–‘ in each column indicates if the olfactory receptor responded or had no effect to that specific chemical; conditions: chemicals tested individually, screened at 500uM (* also at 100uM)

Molecule | Olfr693 response in dual-luciferase assay
CCCCC=O [n-valeraldehyde] | -
CCCCC(=O)O [valerate] | -
CCCC(CCC)C(=O)O [valproate, reference compound] | -
CCCCCCCC(=O)O [octanoic acid] | -
CCCCCCCCCCCC(=O)O [dodecanoic acid] | -
CCCCC(CC)C(=O)O (centres unmarked) [2-ethylhexanoate] | -
C=CCSCC=C [allyl sulfide] | -
CC(=O)c1c(C)c([N+](=O)[O-])c(C(C)(C)C)c([N+](=O)[O-])c1C [musk ketone] | -
CCCCCCCCC(=O)O [nonanoic acid] | -
O=C1CC2CC[C@H]1C2 [norcamphor] | -
CCCCCOC(C)=O [amyl acetate] | -
CC(C)CCO [3-methyl-1-butanol] | -
CCCCCCCCO [1-octanol] | -
CCCCCC(C)=O [2-heptanone] | -
Myrtenal | -
CCCC(=O)C(C)=O [2,3-hexadione] | -

target: T1, Olfr691; assay: not given; set-up: method as in PMID 15550249; conditions: cited from earlier work

Molecule | previously reported ligand of Olfr691
CCCCC(=O)O [valerate] | previously reported

same assay, conditions: listed as pentanal; cited from earlier work

Molecule | previously reported ligand of Olfr691
CCCCC=O [n-valeraldehyde] | previously reported

target: T2, Olfr31 (Mus musculus, UniProt Q3KPA7); assay: dual-luciferase (cAMP/CREB reporter) ligand screen, Olfr31 in HEK293T cells; type: cell-based; conditions: chemicals tested individually, screened at 500uM (* also at 100uM)
T2 construct: expressed in transfected cells; host or cells: HEK293T, co-transfected with RTP1S
T2 sequence (Q3KPA7 1-317): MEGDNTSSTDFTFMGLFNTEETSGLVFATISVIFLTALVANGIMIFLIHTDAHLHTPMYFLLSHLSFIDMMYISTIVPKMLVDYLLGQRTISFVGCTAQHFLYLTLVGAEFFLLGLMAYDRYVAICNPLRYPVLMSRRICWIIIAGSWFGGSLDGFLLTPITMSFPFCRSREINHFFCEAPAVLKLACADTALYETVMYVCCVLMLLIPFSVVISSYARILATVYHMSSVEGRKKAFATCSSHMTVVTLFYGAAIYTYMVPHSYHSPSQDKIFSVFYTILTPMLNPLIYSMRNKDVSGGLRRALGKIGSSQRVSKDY

Molecule | Olfr31 response in dual-luciferase assay
CCCCC=O [n-valeraldehyde] | -
CCCCC(=O)O [valerate] | -
CCCCCCCC(=O)O [octanoic acid] | -
CCCCCCCCCCCC(=O)O [dodecanoic acid] | -
CCCCC(CC)C(=O)O (centres unmarked) [2-ethylhexanoate] | -
C=CCSCC=C [allyl sulfide] | -
CC(=O)c1c(C)c([N+](=O)[O-])c(C(C)(C)C)c([N+](=O)[O-])c1C [musk ketone] | -
CCCCCCCCC(=O)O [nonanoic acid] | -
O=C1CC2CC[C@H]1C2 [norcamphor] | -
CCCCCOC(C)=O [amyl acetate] | -
CC(C)CCO [3-methyl-1-butanol] | -
CCCCCCCCO [1-octanol] | -
CCCCCC(C)=O [2-heptanone] | -
Myrtenal | -
CCCC(=O)C(C)=O [2,3-hexadione] | -
